Converted amounts (≈) assume the structure as drawn.

As a reminder, the MIC is the lowest concentration that inhibits growth of the organism.

In series [1] the test system is Ps. aeruginosa. The experiment in a line: Minimal inhibition concentration of tobramycin. The series is classed as cell-based. Conditions: Pseudomonas aeruginosa.
The conditions of series [2]: CF patients, nebulisation twice a day (tobramycin 80 mg; Colistin 2 mega units); cited from earlier work.
Series [3] concerns Ps. aeruginosa GH56 biofilms. The experiment in a line: In vitro biofilm model (chemostat and Robbins device, viable counts on PVC disks).
Protocol: Each port allows insertion of a sampling stud that contains a polyvinyl chloride (PVC) disk that lies flush to the upper surface of the lumen. The continuous culture is pumped through the Robbins device and biofilms are formed on the surface of PVC disks exposed to the culture.
A 10-ml aliquot of an 18 hour culture of Pseudomonas aeruginosa, at approximately 10^8 cfu per ml, was used to inoculate the sterile growth media within the chemostat. The inocula was introduced into the chemostat through the sample port in the top plate. • ii. Following inoculation, the chemostat was operated as a batch culture for 4 h to allow establishment of the culture. • iii. Medium addition (½ strength nutrient broth, Oxoid) was commenced at the desired flow rate (1 ml per min) and the effluent pump was activated. The flow rate of the effluent pump was the same as the inflow pump. The effluent tubing bypassed the Robbins devices leading straight to the main waste reservoir. • iv. The continuous chemostat was run for a predetermined time until a steady state was attained (96-hours). At this stage, the tubes leading to the Robbins devices were positioned onto the multi-head pump, thus instigating culture flow through the Robbins devices. • v. […] The medium, effluent and culture volumes were recorded on the run sheet and the flow rates calculated accordingly. […]

Take `NC[C@H]1O[C@H](O[C@H]2[C@H](O)[C@@H](O[C@H]3O[C@H](CO)[C@@H](O)[C@H](N)[C@H]3O)[C@H](N)C[C@@H]2N)[C@H](N)C[C@@H]1O` [tobramycin]: the MIC in series [1] is 4 mg/L (≈ 8.56 µM). Also, in series [2], the serum levels result is recorded as “unmeasurable”. Also, the “effect on Ps. aeruginosa sessile (biofilm) population” value in series [3] (four applications at MIC (4 mg L^-1), over 24 h / 48 h) was “no significant effect”. Moreover, the “effect on biofilm viability / sessile population” value in series [3] (tobramycin at 10xMIC, four applications) is recorded as “no significant effect”.

For Colistin, the serum levels result in series [2] is recorded as “unmeasurable”.

The values are drawn from patent US7758856B2, “Bacteriophage for the treatment of bacterial biofilms” (Biocontrol Limited, priority 2003, dated 2010).
